Experiment [1] concerns MV-4-11 human acute myeloid leukemia. The experiment in a line: MV-4-11 CCK-8 proliferation assay. Conditions: Homo sapiens, MV4-11; MV-4-11 cells, 72 hr. In kind it is cell-based. The protocol:
(§1) The following cancer cell lines were employed: A549 human lung carcinoma (ATCC, #CCL-185); BT-474 human breast carcinoma (ATCC, #HTB-20); MDA-MB-231 human breast adenocarcinoma (ATCC, #CRM−HTB-26); MDA-MB-468 human breast adenocarcinoma (ATCC, #HTB-132); MV-4-11 human acute myeloid leukemia (ATCC, #CRL-9591); and U-87 MG human glioblastoma (ATCC, #HTB-14). Cell lines were cultured essentially according to ATCC recommendations.
(§2) 3-fold serial dilutions of each test compound were prepared ranging from 20 μM to 1.02 nM.
(§3) % Inhibition=100−(D−B)/(S−B)*100%. • S: Absorbance of cells treated with DMSO • D: Absorbance of compound-treated cells • B: Absorbance of medium with DMSO without cells
(Formazan colour is commonly taken as a measure of viable cells.)

Experiment [2] concerns U-87 MG human glioblastoma. As to the kind of experiment: U87 MG CCK-8 proliferation assay. Conditions: Homo sapiens, U-87 MG cells, read-out: U87MG CCK-8. In kind it is cell-based. As for the experimental part:
as §1, §2, §3

Molecules are shown by their SMILES. Read-outs that look alike come from different tables or passages of the source. A value given as a limit tells only on which side of the number the result lay.

For `CCOc1cc(N2CCC(C(=O)N3CCN(Cc4ccc(-n5c(C(=O)NCC(F)(F)C(F)(F)F)nnc5-c5cc(C(C)C)c(O)cc5O)cc4)CC3)CC2)ccc1Nc1ncc2c(n1)N(S(C)(=O)=O)c1ccccc1C(=O)N2C` [Compound 175, 5-(2,4-dihydroxy-5-isopropylphenyl)-4-(4-((4-(1-(3-ethoxy-4-((5-methyl-11-(methylsulfonyl)-6-oxo-6,11-dihydro-5H-benzo[e]pyrimido[5,4-b][1,4]diazepin-2-yl)amino)phenyl)piperidine-4-carbonyl)piperazin-1-yl)methyl)phenyl)-N-(2,2,3,3,3-pentafluoropropyl)-4H-1,2,4-triazole-3-carboxamide], the EC50 is less than 100 nM in experiment [1] and less than 100 nM in experiment [2] (U-87 MG, 72 h).
`CCOc1cc(N2CCC(C(=O)N3CCN(Cc4ccc(-n5c(O)nnc5-c5cc(C(C)C)c(OP(=O)(O)O)cc5O)cc4)CC3)CC2)ccc1Nc1ncc2c(n1)N(C)c1ccccc1C(=O)N2C` [Compound 180, 4-(4-(4-((4-(1-(4-((5,11-dimethyl-6-oxo-6,11-dihydro-5H-benzo[e]pyrimido[5,4-b][1,4]diazepin-2-yl)amino)-3-ethoxyphenyl)piperidine-4-carbonyl)piperazin-1-yl)methyl)phenyl)-5-hydroxy-4H-1,2,4-triazol-3-yl)-5-hydroxy-2-isopropylphenyl dihydrogen phosphate]: the EC50 in experiment [1] and in experiment [2] (72 hr) was less than 100 nM throughout.
For the molecule `CCOc1cc(CN2CCC(CN3CCN(Cc4ccc(-n5c(C(=O)NCC(F)(F)F)nnc5-c5cc(C(C)C)c(O)cc5O)cc4)CC3)CC2)ccc1Nc1ncc2c(n1)N(S(C)(=O)=O)c1ccccc1C(=O)N2C` [Compound 191, 5-(2,4-dihydroxy-5-isopropylphenyl)-4-(4-((4-((1-(3-ethoxy-4-((5-methyl-11-(methylsulfonyl)-6-oxo-6,11-dihydro-5H-benzo[e]pyrimido[5,4-b][1,4]diazepin-2-yl)amino)benzyl)piperidin-4-yl)methyl)piperazin-1-yl)methyl)phenyl)-N-(2,2,2-trifluoroethyl)-4H-1,2,4-triazole-3-carboxamide], the EC50 was less than 100 nM in experiment [1] and less than 100 nM in experiment [2] (U-87 MG, 72 h).
Regarding `CCOc1cc(N2CCC(CN3CCN(Cc4ccc(-n5c(O)nnc5-c5cc(C(C)C)c(O)cc5O)cc4)CC3)CC2)ccc1Nc1ncc2c(n1)N(S(C)(=O)=O)c1ccccc1C(=O)N2C` [Compound 187, 2-((4-(4-((4-(4-(3-(2,4-dihydroxy-5-isopropylphenyl)-5-hydroxy-4H-1,2,4-triazol-4-yl)benzyl)piperazin-1-yl)methyl)piperidin-1-yl)-2-ethoxyphenyl)amino)-5-methyl-11-(methylsulfonyl)-5,11-dihydro-6H-benzo[e]pyrimido[5,4-b][1,4]diazepin-6-one], the EC50 in experiment [1] is less than 100 nM; in experiment [2] (U-87 MG, 72 h), less than 100 nM.
`CCOc1cc(N2CCC(C(=O)N3CCC(Oc4ccc(-c5ccc(NC(=O)c6ccc(OC)c(-c7cccc(OC)c7)c6)cc5)cc4)CC3)CC2)ccc1Nc1ncc2c(n1)N(S(C)(=O)=O)c1ccccc1C(=O)N2C` [Compound 144, N-(4′-((1-(1-(3-ethoxy-4-((5-methyl-11-(methylsulfonyl)-6-oxo-6,11-dihydro-5H-benzo[e]pyrimido[5,4-b][1,4]diazepin-2-yl)amino)phenyl)piperidine-4-carbonyl)piperidin-4-yl)oxy)-[1,1′-biphenyl]-4-yl)-3′,6-dimethoxy-[1,1′-biphenyl]-3-carboxamide]: the EC50 in experiment [1] was greater than 1000 nM; in experiment [2] (U-87 MG, 72 h), greater than 1000 nM.
On to `CCOc1cc(N2CCC(C(=O)NCc3ccc(CN(CC)Cc4ccc(-n5c(O)nnc5-c5cc(C(C)C)c(O)cc5O)cc4)cc3)CC2)ccc1Nc1ncc2c(n1)N(S(C)(=O)=O)c1ccccc1C(=O)N2C` [Compound 166, N-(4-(((4-(3-(2,4-dihydroxy-5-isopropylphenyl)-5-hydroxy-4H-1,2,4-triazol-4-yl)benzyl)(ethyl)amino)methyl)benzyl)-1-(3-ethoxy-4-((5-methyl-11-(methylsulfonyl)-6-oxo-6,11-dihydro-5H-benzo[e]pyrimido[5,4-b][1,4]diazepin-2-yl)amino)phenyl)piperidine-4-carboxamide], for which the EC50 is less than 100 nM in experiment [1] and 100 to 1000 nM in experiment [2] (U-87 MG, 72 h).
`CCOc1cc(N2CCC(CN3CCC(CN4CCN(Cc5ccc(-n6c(C(=O)NC(C)C(F)(F)F)nnc6-c6cc(CC)c(O)cc6O)cc5)CC4)CC3)CC2)ccc1Nc1ncc2c(n1)N(S(C)(=O)=O)c1ccccc1C(=O)N2C` (stereo not shown) [Compound 179, 4-(4-((4-((1-((1-(3-ethoxy-4-((5-methyl-11-(methylsulfonyl)-6-oxo-6,11-dihydro-5H-benzo[e]pyrimido[5,4-b][1,4]diazepin-2-yl)amino)phenyl)piperidin-4-yl)methyl)piperidin-4-yl)methyl)piperazin-1-yl)methyl)phenyl)-5-(5-ethyl-2,4-dihydroxyphenyl)-N-(1,1,1-trifluoropropan-2-yl)-4H-1,2,4-triazole-3-carboxamide 2,2,2-trifluoroacetate]: the EC50 in experiment [1] was less than 100 nM; in experiment [2] (U-87 MG, 72 h), less than 100 nM.
Turning to `CCOc1cc(N2CCC(C(=O)N3CCC(Oc4ccc(-c5ccc(NC(=O)c6ccc(OC)c(-c7cccc(OC)c7)c6)cc5)cc4)CC3)CC2)ccc1Nc1ncc2c(n1)N(C)c1ccccc1C(=O)N2C` [Compound 143, N-(4′-((1-(1-(4-((5,11-dimethyl-6-oxo-6,11-dihydro-5H-benzo[e]pyrimido[5,4-b][1,4]diazepin-2-yl)amino)-3-ethoxyphenyl)piperidine-4-carbonyl)piperidin-4-yl)oxy)-[1,1′-biphenyl]-4-yl)-3′,6-dimethoxy-[1,1′-biphenyl]-3-carboxamide], the EC50 in experiment [1] was greater than 1000 nM; in experiment [2] (U-87 MG, 72 h), greater than 1000 nM.
In the case of `CCOc1cc(N2CCC(C(=O)NCCCOc3ccc(-c4ccc(NC(=O)c5ccc(OC)c(-c6cccc(OC)c6)c5)cc4)c(OCCCN(C)C)c3)CC2)ccc1Nc1ncc2c(n1)N(C)c1ccccc1C(=O)N2C` [Compound 152, N-(3-((4′-(3′,6-dimethoxy-[1,1′-biphenyl]-3-carboxamido)-2-(3-(dimethylamino)propoxy)-[1,1′-biphenyl]-4-yl)oxy)propyl)-1-(4-((5,11-dimethyl-6-oxo-6,11-dihydro-5H-benzo[e]pyrimido[5,4-b][1,4]diazepin-2-yl)amino)-3-ethoxyphenyl)piperidine-4-carboxamide], the EC50 was greater than 1000 nM in experiment [1] and greater than 1000 nM in experiment [2] (U-87 MG, 72 h).
As to `CCOc1cc(N2CCC(CN3CCC4(CC3)CN(Cc3ccc(-n5c(O)nnc5-c5cc(C(C)C)c(O)cc5O)cc3)C4)CC2)ccc1Nc1ncc2c(n1)N(S(C)(=O)=O)c1ccccc1C(=O)N2C` [Compound 184, 2-((4-(4-((2-(4-(3-(2,4-dihydroxy-5-isopropylphenyl)-5-hydroxy-4H-1,2,4-triazol-4-yl)benzyl)-2,7-diazaspiro[3.5]nonan-7-yl)methyl)piperidin-1-yl)-2-ethoxyphenyl)amino)-5-methyl-11-(methylsulfonyl)-5,11-dihydro-6H-benzo[e]pyrimido[5,4-b][1,4]diazepin-6-one], the EC50 is less than 100 nM in experiment [1] and 100 to 1000 nM in experiment [2] (U-87 MG, 72 h).
As to `CCOc1cc(N2CCC(C(=O)N3CCN(Cc4ccc(-n5c(O)nnc5-c5cc(C(C)C)c(O)cc5O)cc4)CC3)CC2)ccc1N(CC)c1ncc2c(n1)N(S(C)(=O)=O)c1ccccc1C(=O)N2C` [Compound 160, 2-((4-(4-(4-(4-(3-(2,4-dihydroxy-5-isopropylphenyl)-5-hydroxy-4H-1,2,4-triazol-4-yl)benzyl)piperazine-1-carbonyl)piperidin-1-yl)-2-ethoxyphenyl)(ethyl)amino)-5-methyl-11-(methylsulfonyl)-5,11-dihydro-6H-benzo[e]pyrimido[5,4-b][1,4]diazepin-6-one], the EC50 in experiment [1] is less than 100 nM; in experiment [2] (U-87 MG, 72 h) it was 100 to 1000 nM.
Regarding `CCOc1cc(N2CCN(Cc3ccc(-n4c(O)nnc4-c4cc(C(C)C)c(O)cc4O)cc3)CC2)ccc1Nc1ncc2c(n1)N(C1CCCC1)c1ccccc1C(=O)N2C` [Compound 188, 11-cyclopentyl-2-((4-(4-(4-(3-(2,4-dihydroxy-5-isopropylphenyl)-5-hydroxy-4H-1,2,4-triazol-4-yl)benzyl)piperazin-1-yl)-2-ethoxyphenyl)amino)-5-methyl-5,11-dihydro-6H-benzo[e]pyrimido[5,4-b][1,4]diazepin-6-one], the EC50 was 100 to 1000 nM in experiment [1] and greater than 1000 nM in experiment [2] (U-87 MG, 72 h).
The corresponding values for `CCOc1cc(N2CCC(CN3CCN(Cc4ccc(-n5c(C(=O)NCC(F)(F)F)nnc5-c5cc(C(C)C)c(O)cc5O)cc4)CC3)CC2)ccc1Nc1ncc2c(n1)N(S(C)(=O)=O)c1ccccc1C(=O)N2C` [Compound 178, 5-(2,4-dihydroxy-5-isopropylphenyl)-4-(4-((4-((1-(3-ethoxy-4-((5-methyl-11-(methylsulfonyl)-6-oxo-6,11-dihydro-5H-benzo[e]pyrimido[5,4-b][1,4]diazepin-2-yl)amino)phenyl)piperidin-4-yl)methyl)piperazin-1-yl)methyl)phenyl)-N-(2,2,2-trifluoroethyl)-4H-1,2,4-triazole-3-carboxamide] are less than 100 nM and less than 100 nM.
On the same counts, the results for `CCOc1cc(N2CCC(C(=O)N3CCN(Cc4ccc(-n5c(C(=O)NCCN6CCN(C)CC6)nnc5-c5cc(C(C)C)c(O)cc5O)cc4)CC3)CC2)ccc1Nc1ncc2c(n1)N(C)c1ccccc1C(=O)N2C` [Compound 167, 5-(2,4-dihydroxy-5-isopropylphenyl)-4-(4-((4-(1-(4-((5,11-dimethyl-6-oxo-6,11-dihydro-5H-benzo[e]pyrimido[5,4-b][1,4]diazepin-2-yl)amino)-3-ethoxyphenyl)piperidine-4-carbonyl)piperazin-1-yl)methyl)phenyl)-N-(2-(4-methylpiperazin-1-yl)ethyl)-4H-1,2,4-triazole-3-carboxamide] are less than 100 nM and less than 100 nM.

Values taken from US20240124460A1, “METHODS AND COMPOSITIONS FOR TARGETED PROTEIN DEGRADATION” (Ranok Therapeutics (Hangzhou) Co. Ltd., priority 2020, published 2024).
